Molecular target: T1, T1R2/T1R3 taste receptor (Homo sapiens, UniProt Q8TE23)
T1 sequence (Q8TE23 20-839): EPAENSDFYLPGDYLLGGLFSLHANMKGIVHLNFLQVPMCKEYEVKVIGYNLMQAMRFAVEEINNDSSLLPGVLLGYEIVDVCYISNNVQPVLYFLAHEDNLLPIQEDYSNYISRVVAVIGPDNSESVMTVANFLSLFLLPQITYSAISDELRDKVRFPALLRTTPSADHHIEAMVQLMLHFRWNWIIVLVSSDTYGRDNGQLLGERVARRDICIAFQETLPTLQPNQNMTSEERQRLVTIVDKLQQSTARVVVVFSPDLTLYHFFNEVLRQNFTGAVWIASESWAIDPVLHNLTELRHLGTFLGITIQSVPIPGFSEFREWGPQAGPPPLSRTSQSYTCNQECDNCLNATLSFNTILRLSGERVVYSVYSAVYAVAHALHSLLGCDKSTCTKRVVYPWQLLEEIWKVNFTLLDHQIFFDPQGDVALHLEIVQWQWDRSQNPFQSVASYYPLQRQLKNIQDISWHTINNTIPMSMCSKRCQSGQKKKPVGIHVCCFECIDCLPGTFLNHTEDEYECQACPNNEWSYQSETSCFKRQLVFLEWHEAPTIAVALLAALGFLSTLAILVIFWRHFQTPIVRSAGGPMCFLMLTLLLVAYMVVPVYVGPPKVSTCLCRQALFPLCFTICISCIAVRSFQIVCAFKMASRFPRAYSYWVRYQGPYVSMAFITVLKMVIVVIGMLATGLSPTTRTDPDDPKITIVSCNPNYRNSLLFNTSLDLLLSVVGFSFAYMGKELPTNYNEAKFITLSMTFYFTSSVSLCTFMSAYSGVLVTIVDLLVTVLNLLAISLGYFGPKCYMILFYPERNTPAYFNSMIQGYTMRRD
T1 sequence (Q7RTX0 21-852 partner): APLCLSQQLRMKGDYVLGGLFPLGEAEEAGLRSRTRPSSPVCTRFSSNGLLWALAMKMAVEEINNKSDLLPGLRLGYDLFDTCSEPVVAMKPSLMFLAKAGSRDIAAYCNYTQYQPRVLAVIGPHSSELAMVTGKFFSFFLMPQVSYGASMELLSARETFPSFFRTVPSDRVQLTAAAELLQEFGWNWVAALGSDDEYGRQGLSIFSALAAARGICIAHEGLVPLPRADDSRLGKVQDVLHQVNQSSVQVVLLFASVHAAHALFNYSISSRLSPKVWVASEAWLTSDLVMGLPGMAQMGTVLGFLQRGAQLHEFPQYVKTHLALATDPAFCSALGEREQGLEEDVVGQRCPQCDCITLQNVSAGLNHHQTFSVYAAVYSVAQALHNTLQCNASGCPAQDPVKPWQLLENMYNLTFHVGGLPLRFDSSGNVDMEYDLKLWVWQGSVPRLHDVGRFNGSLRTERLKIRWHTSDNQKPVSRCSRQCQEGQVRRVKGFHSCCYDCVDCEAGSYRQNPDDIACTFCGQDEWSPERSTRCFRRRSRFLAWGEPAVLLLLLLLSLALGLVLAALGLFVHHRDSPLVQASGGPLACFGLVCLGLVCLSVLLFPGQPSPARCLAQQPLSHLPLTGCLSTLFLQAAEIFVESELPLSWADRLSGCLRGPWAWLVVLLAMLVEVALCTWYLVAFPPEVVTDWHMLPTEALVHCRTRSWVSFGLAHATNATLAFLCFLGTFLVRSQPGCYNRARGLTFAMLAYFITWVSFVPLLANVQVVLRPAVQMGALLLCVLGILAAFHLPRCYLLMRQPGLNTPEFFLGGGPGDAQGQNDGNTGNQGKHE
Experiment: Receptor-based assay: sweetener EC50 alone and with test compound (enhancement ratio)
Type: cell-based
Details: for Sucralose Enhancement EC50 Ratio: sweetener sucralose; for Sucrose Enhancement EC50 Ratio: sweetener sucrose; for Fructose Enhancement EC50 Ratio: sweetener fructose
Procedure: Potencies (EC50 values) for the sweeteners sucrose, sucralose, and fructose were measured against the T1R2/T1R3 taste receptor. EC50 was determined using the sweetener alone and in the presence of 3 μM, 10 μM, or 50 μM of test compound. EC50 ratios were calculated by the ratio of potency with and without the test compound. An “A” value indicates an enhancement ratio of greater than 20. A “B” value indicates an enhancement ratio from 10 to 20. A “C” value indicates an enhancement ratio greater than 1 and less than 10.

SMILES | Sucralose Enhancement EC50 Ratio (10 μM test compound) | Sucralose Enhancement EC50 Ratio (50 μM test compound) | Sucrose Enhancement EC50 Ratio (3 μM test compound) | Sucrose Enhancement EC50 Ratio (10 μM test compound) | Sucrose Enhancement EC50 Ratio (50 μM test compound) | Fructose Enhancement EC50 Ratio (10 μM test compound) | Fructose Enhancement EC50 Ratio (50 μM test compound)
Cc1cnc(NC(C)(C)COc2cccc3c2C(N)=NS(=O)(=O)N3)nc1 [Compound 100, 4-amino-5-(2-methyl-2-((5-methylpyrimidin-2-yl)amino)propoxy)-1H-benzo[c][1,2,6]thiadiazine 2,2-dioxide] | A (An “A” value indicates an enhancement ratio of greater than 20) | A (An “A” value indicates an enhancement ratio of greater than 20) | C (A “C” value indicates an enhancement ratio greater than 1 and less than 10) | C (A “C” value indicates an enhancement ratio greater than 1 and less than 10) | C (A “C” value indicates an enhancement ratio greater than 1 and less than 10) |  | 
CC(C)(COc1cccc2c1C(N)=NS(=O)(=O)N2)Nc1ccccn1 [Compound 101] | A (An “A” value indicates an enhancement ratio of greater than 20) | A (An “A” value indicates an enhancement ratio of greater than 20) | C (A “C” value indicates an enhancement ratio greater than 1 and less than 10) | C (A “C” value indicates an enhancement ratio greater than 1 and less than 10) | C (A “C” value indicates an enhancement ratio greater than 1 and less than 10) | C (A “C” value indicates an enhancement ratio greater than 1 and less than 10) | 
CC(C)(COc1cccc2c1C(N)=NS(=O)(=O)N2)Nc1ncccn1 [Compound 102] | A (An “A” value indicates an enhancement ratio of greater than 20) | A (An “A” value indicates an enhancement ratio of greater than 20) |  | C (A “C” value indicates an enhancement ratio greater than 1 and less than 10) | B (A “B” value indicates an enhancement ratio from 10 to 20) | C (A “C” value indicates an enhancement ratio greater than 1 and less than 10) | 
Cc1cc(C)nc(NC(C)(C)COc2cccc3c2C(N)=NS(=O)(=O)N3)n1 [Compound 103] | A (An “A” value indicates an enhancement ratio of greater than 20) | A (An “A” value indicates an enhancement ratio of greater than 20) | C (A “C” value indicates an enhancement ratio greater than 1 and less than 10) | C (A “C” value indicates an enhancement ratio greater than 1 and less than 10) | C (A “C” value indicates an enhancement ratio greater than 1 and less than 10) | C (A “C” value indicates an enhancement ratio greater than 1 and less than 10) | C (A “C” value indicates an enhancement ratio greater than 1 and less than 10)
NC1=NS(=O)(=O)Nc2cccc(OC[C@H]3CCCN(c4ccccn4)C3)c21 [Compound 104] | A (An “A” value indicates an enhancement ratio of greater than 20) | A (An “A” value indicates an enhancement ratio of greater than 20) | C (A “C” value indicates an enhancement ratio greater than 1 and less than 10) | C (A “C” value indicates an enhancement ratio greater than 1 and less than 10) | C (A “C” value indicates an enhancement ratio greater than 1 and less than 10) | C (A “C” value indicates an enhancement ratio greater than 1 and less than 10) | 
NC1=NS(=O)(=O)Nc2cccc(OC[C@H]3CCCN(c4ncccn4)C3)c21 [Compound 105] | A (An “A” value indicates an enhancement ratio of greater than 20) | A (An “A” value indicates an enhancement ratio of greater than 20) | C (A “C” value indicates an enhancement ratio greater than 1 and less than 10) | C (A “C” value indicates an enhancement ratio greater than 1 and less than 10) | C (A “C” value indicates an enhancement ratio greater than 1 and less than 10) | C (A “C” value indicates an enhancement ratio greater than 1 and less than 10) | C (A “C” value indicates an enhancement ratio greater than 1 and less than 10)
CC(C)(COc1cccc2c1C(N)=NS(=O)(=O)N2)Nc1ccnc(Cl)n1 [Compound 201, 4-amino-5-(2-((2-chloropyrimidin-4-yl)amino)-2-methylpropoxy)-1H-benzo[c][1,2,6]thiadiazine 2,2-dioxide] |  | A (An “A” value indicates an enhancement ratio of greater than 20) | C (A “C” value indicates an enhancement ratio greater than 1 and less than 10) | C (A “C” value indicates an enhancement ratio greater than 1 and less than 10) | C (A “C” value indicates an enhancement ratio greater than 1 and less than 10) | C (A “C” value indicates an enhancement ratio greater than 1 and less than 10) | 
CC(C)(COc1cccc2c1C(N)=NS(=O)(=O)N2)Nc1ccnc(-n2cccn2)n1 [Compound 202] |  |  |  |  | C (A “C” value indicates an enhancement ratio greater than 1 and less than 10) |  | 
CC(C)(COc1cccc2c1C(N)=NS(=O)(=O)N2)Nc1ccnc(N2CCCC2)n1 [Compound 204] | A (An “A” value indicates an enhancement ratio of greater than 20) | A (An “A” value indicates an enhancement ratio of greater than 20) | C (A “C” value indicates an enhancement ratio greater than 1 and less than 10) | C (A “C” value indicates an enhancement ratio greater than 1 and less than 10) | C (A “C” value indicates an enhancement ratio greater than 1 and less than 10) |  | C (A “C” value indicates an enhancement ratio greater than 1 and less than 10)
CC(C)(COc1cccc2c1C(N)=NS(=O)(=O)N2)Nc1ccnc(N2CCOCC2)n1 [Compound 205] | B (A “B” value indicates an enhancement ratio from 10 to 20) | A (An “A” value indicates an enhancement ratio of greater than 20) | C (A “C” value indicates an enhancement ratio greater than 1 and less than 10) | C (A “C” value indicates an enhancement ratio greater than 1 and less than 10) | C (A “C” value indicates an enhancement ratio greater than 1 and less than 10) |  | C (A “C” value indicates an enhancement ratio greater than 1 and less than 10)
COCCNc1nccc(NC(C)(C)COc2cccc3c2C(N)=NS(=O)(=O)N3)n1 [Compound 206] | B (A “B” value indicates an enhancement ratio from 10 to 20) | A (An “A” value indicates an enhancement ratio of greater than 20) | C (A “C” value indicates an enhancement ratio greater than 1 and less than 10) | C (A “C” value indicates an enhancement ratio greater than 1 and less than 10) | C (A “C” value indicates an enhancement ratio greater than 1 and less than 10) | C (A “C” value indicates an enhancement ratio greater than 1 and less than 10) | C (A “C” value indicates an enhancement ratio greater than 1 and less than 10)

From patent publication US11945813B2, “5-substituted 4-amino-1H-benzo[c][1,2,6]thiadiazine 2,2-dioxides and formulations and uses thereof” (Firmenich Incorporated, priority 2018, dated 2024)
